Each structure is given as a SMILES string.

This experiment concerns the target MAPK14 (UniProt Q16539). Nature of the experiment: Inhibition of MAPK14 Kinase Activity.

MAPK14, sequence (Q16539 whole entry, looked up): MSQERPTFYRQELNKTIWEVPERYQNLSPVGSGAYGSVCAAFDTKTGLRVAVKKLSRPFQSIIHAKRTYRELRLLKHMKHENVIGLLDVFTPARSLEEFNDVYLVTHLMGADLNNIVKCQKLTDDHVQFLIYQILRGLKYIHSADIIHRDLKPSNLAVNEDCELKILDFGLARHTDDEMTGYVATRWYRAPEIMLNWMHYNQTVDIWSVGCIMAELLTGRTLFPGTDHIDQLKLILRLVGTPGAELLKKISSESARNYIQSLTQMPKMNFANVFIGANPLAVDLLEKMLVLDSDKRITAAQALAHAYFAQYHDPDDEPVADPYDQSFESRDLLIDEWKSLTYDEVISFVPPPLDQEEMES

As to `COc1ccc(C(F)(F)F)cc1NC(=O)Nc1ccc(Oc2cc(C)nc(NC(C)C)n2)c2ccccc12`, the half-maximal inhibitory concentration (IC50) (as a rule, the midpoint of a concentration-inhibition curve) is < 1000 nM.
Turning to `COc1ccc(C(F)(F)F)cc1NC(=O)Nc1ccc(Oc2cc(C)nc(C)n2)c2ccccc12`, the IC50 is < 1000 nM.
As to `COc1ccc(C(F)(F)F)cc1NC(=O)Nc1ccc(Oc2cc(C)nc(N)n2)c2ccccc12`, the IC50 was < 1000 nM.
With `COc1ccc(CC(F)(F)F)cc1NC(=O)Nc1ccc(Oc2cc(C)nc(NCCCN3CCOCC3)n2)c2ccccc12`, the IC50 is < 1000 nM.
On to `COc1ccc(C(F)(F)F)cc1NC(=O)Nc1ccc(Oc2cc(C)nc(NC3CC3)n2)c2ccccc12`, for which the IC50 is < 1000 nM.
In the case of `COc1ccc(C(C(F)(F)F)C(F)(F)F)cc1NC(=O)Nc1ccc(Oc2cc(C)nc(NCCN(C)C)n2)c2ccccc12`, the IC50 was < 1000 nM.
In the case of `COc1ccc(OC(F)(F)F)cc1NC(=O)Nc1ccc(Oc2cc(C)nc(CN3CCCC3)n2)c2ccccc12`, the 50% inhibitory concentration (IC50) is < 1000 nM.
`COc1ccc(CC(F)(F)F)cc1NC(=O)Nc1ccc(Oc2cc(C)nc(N)n2)c2ccccc12`: the half-maximal inhibitory concentration (IC50) was < 1000 nM.
On to `COc1ccc(C(F)(F)C(F)(F)F)cc1NC(=O)Nc1ccc(Oc2cc(C)nc(N)n2)c2ccccc12`, for which the 50% inhibitory concentration (IC50) was < 1000 nM.
Regarding `COc1ccc(OC(F)(F)F)cc1NC(=O)Nc1ccc(Oc2cc(C)nc(NCCN(C)C)n2)c2ccccc12`, the IC50 was < 1000 nM.
As to `COc1ccc(C(F)(F)F)cc1NC(=O)Nc1ccc(Oc2cc(C)nc(NCCN3CCCC3)n2)c2ccccc12`, the IC50 was < 1000 nM.
Take `CCNc1nc(C)cc(Oc2ccc(NC(=O)Nc3cc(C(F)(F)F)ccc3OC)c3ccccc23)n1`: the IC50 was < 1000 nM.
Then `COc1ccc(CC(F)(F)F)cc1NC(=O)Nc1ccc(Oc2cc(C)nc(NCCCN(C)C)n2)c2ccccc12`, with < 1000 nM; and `COc1ccc(C(F)(F)F)cc1NC(=O)Nc1ccc(Oc2cc(C)nc(NCCN(C)C)n2)c2ccccc12`, with < 1000 nM.
Turning to `COCCNc1nc(C)cc(Oc2ccc(NC(=O)Nc3cc(OC(F)(F)F)ccc3OC)c3ccccc23)n1`, the IC50 is < 1000 nM.
Then `COc1ccc(C(C)C(F)(F)F)cc1NC(=O)Nc1ccc(Oc2cc(C)nc(N)n2)c2ccccc12` (centres undefined), with < 1000 nM; and `COc1ccc(C(F)(F)F)cc1NC(=O)Nc1ccc(Oc2cc(C)nc(CN3CCOCC3)n2)c2ccccc12`, with < 1000 nM; and `COc1ccc(OC(F)(F)F)cc1NC(=O)Nc1ccc(Oc2cc(C)nc(NCCN3CCCC3)n2)c2ccccc12`, with < 1000 nM.
With `COc1ccc(C(F)(F)F)cc1NC(=O)Nc1ccc(Oc2cc(C)nc(NCC(O)CO)n2)c2ccccc12` (centres undefined), the IC50 is < 1000 nM.
For the compound `COc1ccc(C(C(F)(F)F)C(F)(F)F)cc1NC(=O)Nc1ccc(Oc2cc(C)nc(N)n2)c2ccccc12`, the concentration for half-maximal inhibition (IC50) was < 1000 nM.
On to `COc1ccc(C(F)(F)F)cc1NC(=O)Nc1ccc(Oc2cc(C)nc(NCC3CC3)n2)c2ccccc12`, for which the IC50 is < 1000 nM.
As for `COc1c(NC(=O)Nc2ccc(Oc3cc(C)nc(C)n3)c3ccccc23)cc(C(F)(F)F)cc1NS(C)(=O)=O`, the IC50 is < 1000 nM.
Then `COc1ccc(CC(F)(F)F)cc1NC(=O)Nc1ccc(Oc2cc(C)nc(OCC3CCN(C)CC3)n2)c2ccccc12`, with < 1000 nM; and `COc1ccc(C(F)(F)F)cc1NC(=O)Nc1ccc(Oc2cc(C)nc(CN3CCN(C)CC3)n2)c2ccccc12`, with < 1000 nM.
In the case of `COc1ccc(C(F)(F)F)cc1NC(=O)Nc1ccc(Oc2cc(C)nc(NCC3CCCO3)n2)c2ccccc12` (centres undefined), the IC50 is < 1000 nM.
Then `CCNc1nc(C)cc(Oc2ccc(NC(=O)Nc3cc(OC(F)(F)F)ccc3OC)c3ccccc23)n1`, with < 1000 nM; and `COc1ccc(C(F)(F)F)cc1NC(=O)Nc1ccc(Oc2cc(C)nc(NCCN3CCOCC3)n2)c2ccccc12`, with < 1000 nM.
In the case of `COc1ccc(OC(F)(F)F)cc1NC(=O)Nc1ccc(Oc2cc(C)nc(NCCCN3CCOCC3)n2)c2ccccc12`, the IC50 was < 1000 nM.
With `COc1ccc(OC(F)(F)F)cc1NC(=O)Nc1ccc(Oc2cc(C)nc(CN3CCN(C)CC3)n2)c2ccccc12`, the IC50 was < 1000 nM.
For `COCCNc1nc(C)cc(Oc2ccc(NC(=O)Nc3cc(C(F)(F)F)ccc3OC)c3ccccc23)n1`, the IC50 was < 1000 nM.
For the compound `CNc1nc(C)cc(Oc2ccc(NC(=O)Nc3cc(C(F)(F)F)ccc3OC)c3ccccc23)n1`, the IC50 is < 1000 nM.
For the compound `COc1nc(C)cc(Oc2ccc(NC(=O)Nc3cc(C(F)(F)F)ccc3OC)c3ccccc23)n1`, the IC50 is < 1000 nM.
`COc1ccc(OC(F)(F)F)cc1NC(=O)Nc1ccc(Oc2cc(C)nc(CN3CCOCC3)n2)c2ccccc12`: the concentration for half-maximal inhibition (IC50) is < 1000 nM.
With `COc1ccc(OC(F)(F)F)cc1NC(=O)Nc1ccc(Oc2cc(C)nc(OCCn3ccnc3)n2)c2ccccc12` the figure was < 1000 nM; with `CNc1nc(C)cc(Oc2ccc(NC(=O)Nc3cc(OC(F)(F)F)ccc3OC)c3ccccc23)n1`, < 1000 nM; with `COCC(C)Nc1nc(C)cc(Oc2ccc(NC(=O)Nc3cc(C(F)(F)F)ccc3OC)c3ccccc23)n1` (centres undefined), < 1000 nM.
Regarding `COc1ccc(C(F)(F)F)cc1NC(=O)Nc1ccc(Oc2cc(C)nc(CN(C)C)n2)c2ccccc12`, the IC50 is < 1000 nM.
`COc1ccc(OC(F)(F)F)cc1NC(=O)Nc1ccc(Oc2cc(C)nc(CN(C)C)n2)c2ccccc12`: the IC50 was < 1000 nM.
Regarding `COc1ccc(C(C(F)(F)F)C(F)(F)F)cc1NC(=O)Nc1ccc(Oc2cc(C)nc(CN3CCOCC3)n2)c2ccccc12`, the IC50 is < 1000 nM.

(Values after the Kinase Knowledgebase extract (Sharma et al. 2016).)
